Data reported in US11524966B1 (Valo Early Discovery, Inc., priority 2017, dated 2022).

Target: T1, USP25 (USP25-His6, Boston Biochem E-546) (Homo sapiens, UniProt Q9UHP3)
T1 construct: His6; purchased Boston Biochem E-546
T1 sequence (Q9UHP3 1-1055): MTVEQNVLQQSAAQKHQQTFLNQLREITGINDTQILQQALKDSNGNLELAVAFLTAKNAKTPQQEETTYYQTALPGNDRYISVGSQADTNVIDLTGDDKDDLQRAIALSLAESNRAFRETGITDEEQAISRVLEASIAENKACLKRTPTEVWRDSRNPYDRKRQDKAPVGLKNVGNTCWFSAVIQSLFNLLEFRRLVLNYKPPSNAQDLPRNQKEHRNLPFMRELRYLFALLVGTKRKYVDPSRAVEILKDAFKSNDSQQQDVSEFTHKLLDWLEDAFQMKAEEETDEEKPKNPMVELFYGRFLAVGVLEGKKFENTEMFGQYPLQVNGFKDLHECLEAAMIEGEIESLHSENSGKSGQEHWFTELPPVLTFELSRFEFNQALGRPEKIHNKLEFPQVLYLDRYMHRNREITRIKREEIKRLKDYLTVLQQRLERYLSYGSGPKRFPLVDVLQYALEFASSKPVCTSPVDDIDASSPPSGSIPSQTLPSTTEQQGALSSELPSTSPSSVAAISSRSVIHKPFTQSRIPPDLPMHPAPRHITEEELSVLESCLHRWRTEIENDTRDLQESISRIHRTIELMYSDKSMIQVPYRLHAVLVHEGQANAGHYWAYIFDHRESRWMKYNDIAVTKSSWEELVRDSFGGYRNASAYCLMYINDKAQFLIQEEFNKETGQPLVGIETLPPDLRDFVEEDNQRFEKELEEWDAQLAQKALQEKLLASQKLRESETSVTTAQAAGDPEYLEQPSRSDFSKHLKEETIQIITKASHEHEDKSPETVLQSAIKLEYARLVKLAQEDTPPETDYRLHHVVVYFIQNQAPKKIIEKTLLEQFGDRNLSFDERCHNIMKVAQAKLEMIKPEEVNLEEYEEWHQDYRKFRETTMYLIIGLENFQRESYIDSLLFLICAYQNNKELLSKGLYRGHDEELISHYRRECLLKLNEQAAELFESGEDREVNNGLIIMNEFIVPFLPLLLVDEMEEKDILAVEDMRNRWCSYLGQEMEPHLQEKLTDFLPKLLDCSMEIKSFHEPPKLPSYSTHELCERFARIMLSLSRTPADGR
Experiment: Ubiquitin-Rhodamine 110 Assay for USP25 Activity, Example A-2
Format: biochemical
Conditions: Ub-Rh110 assay, Example A-2; read-out: USP25 A-2 IC50 range
Experimental: The assay was performed in a final volume of 9 μL in assay buffer containing 20 mM Tris-HCl (pH 8.0, (1M Tris-HCl, pH 8.0 solution; Corning 46-031-CM)), 3 mM BME (2-Mercaptoethanol; Sigma 63689-25ML-F), 0.03% BGG (0.22 μM filtered, Sigma, G7516-25G), and 0.01% Triton X-100 (Sigma, T9284-10L). Nanoliter quantities of 10-point, 3-fold serial dilution in DMSO was pre-dispensed into 1536 assay plates (Corning, #3724BC) for a final test concentration of 25 μM to 1.3 nM, top to lowest dose, respectively. Enzyme USP25, construct USP25-His6, (Boston Biochem E-546). Concentration and incubation times were optimized for the maximal signal-to-background while maintaining initial velocity conditions at a fixed substrate concentration. The final concentration of the enzyme in the assay was 75 pM. Final substrate (Ub-Rh110; Ubiquitin-Rhodamine 110, R&D Systems #U-555) concentration was 25 nM with [Ub-Rh110]<<Km. 3 μL of 2× enzyme was added to assay plates (pre-stamped with compound) preincubated with […] for 30 minutes and then 3 μL of 2×Ub-Rh110 was added to assay plates. Plates were incubated for 45 minutes at room temperature before addition of 3 μL of stop solution (final concentration of 10 mM citric acid (Sigma, 251275-500G)). Fluorescence was read on the Envision (Excitation at 485 nm and Emission at 535 nm; Perkin Elmer) or on the PheraSTAR (Excitation at 485 nm and Emission at 535 nm; BMG Labtech).
IC50 values were determined by curve fitting of the standard 4 parameter logistic fitting algorithm included in the Activity Base software package: IDBS XE Designer Model 205. Data is fitted using the Levenburg Marquardt algorithm.

SMILES | IC50 [µM]
Cc1nc2sc(C(=O)N[C@H]3COc4cc(N5CCNCC5)cc(F)c4C3)c(N)c2s1 (single isomer, unassigned) [Example 1-37] | > 2
Cc1nc2sc(C(=O)N[C@@H]3COc4cc(N5CCNCC5)cc(F)c4C3)c(N)c2s1 (single isomer, unassigned) [Example 1-38] | 0.2 to 2
Cc1nc2sc(C(=O)N[C@H]3COc4cc(N5CC6CCC(C5)N6)cc(F)c4C3)c(N)c2s1 (single isomer, unassigned) [Example 1-39] | 0.2 to 2
Cc1nc2sc(C(=O)N[C@@H]3COc4cc(N5CC6CCC(C5)N6)cc(F)c4C3)c(N)c2s1 (single isomer, unassigned) [Example 1-40] | > 2
Cc1ccc2c(N)c(C(=O)N[C@@H]3COc4cc(N5CC6CC(C5)N6)cc(F)c4C3)sc2n1 (single isomer, unassigned) [Example 1-41] | 0.05 to 0.2
Cc1ccc2c(N)c(C(=O)N[C@H]3COc4cc(N5CC6CC(C5)N6)cc(F)c4C3)sc2n1 (single isomer, unassigned) [Example 1-42] | > 2
Cc1cnc2c(N)c(C(=O)N[C@H]3CCc4cc(N5CCNCC5)c(C)cc4C3)sc2n1 (single isomer, unassigned) [Example 2-34] | > 2
Cc1cnc2c(N)c(C(=O)N[C@@H]3CCc4cc(N5CCNCC5)c(C)cc4C3)sc2n1 (single isomer, unassigned) [Example 2-35] | > 2
Cc1cnc2c(N)c(C(=O)N[C@H]3CCc4c(ccc(N5CCNCC5)c4C)C3)sc2n1 (single isomer, unassigned) [Example 2-36] | > 2
Cc1cnc2c(N)c(C(=O)N[C@@H]3CCc4c(ccc(N5CCNCC5)c4C)C3)sc2n1 (single isomer, unassigned) [Example 2-37] | 0.2 to 2
CO[C@H]1CN(c2ccc3c(c2)OC[C@H](NC(=O)c2sc4nc(C)ccc4c2N)C3)C[C@@H]1N (single isomer, unassigned) [Example 3-1] | 0.2 to 2
CO[C@@H]1CN(c2ccc3c(c2)OC[C@H](NC(=O)c2sc4nc(C)ccc4c2N)C3)C[C@H]1N (single isomer, unassigned) [Example 3-2] | 0.2 to 2
Cc1ccc2c(N)c(C(=O)N[C@H]3COc4cc(N5CCC[C@@](N)(C(F)(F)F)C5)ccc4C3)sc2n1 (single isomer, unassigned) [Example 3-3] | 0.05 to 0.2
Cc1ccc2c(N)c(C(=O)N[C@H]3COc4cc(N5CCC[C@](N)(C(F)(F)F)C5)ccc4C3)sc2n1 (single isomer, unassigned) [Example 3-4] | 0.2 to 2
Cc1nc2sc(C(=O)N[C@H]3COc4cc(N5CC6CCC(C5)N6)ccc4C3)c(N)c2s1 [Example 1-23, N-((3R)-7-(3,8-diazabicyclo[3.2.1]octan-3-yl)chroman-3-yl)-6-amino-2-methylthieno[2,3-d]thiazole-5-carboxamide] | 0.2 to 2
Cc1nc2sc(C(=O)N[C@@H]3COc4cc(N5CC6CCC(C5)N6)ccc4C3)c(N)c2s1 [Example 1-24, N-((3S)-7-(3,8-diazabicyclo[3.2.1]octan-3-yl)chroman-3-yl)-6-amino-2-methylthieno[2,3-d]thiazole-5-carboxamide] | > 2
Cc1nc2sc(C(=O)N[C@H]3COc4cc(N5CCNCC5)ccc4C3)c(N)c2s1 [Example 1-25, (R)-6-amino-2-methyl-N-(7-(piperazin-1-yl)chroman-3-yl)thieno[2,3-d]thiazole-5-carboxamide] | 0.2 to 2
Cc1nc2sc(C(=O)N[C@@H]3COc4cc(N5CCNCC5)ccc4C3)c(N)c2s1 [Example 1-26, (S)-6-amino-2-methyl-N-(7-(piperazin-1-yl)chroman-3-yl)thieno[2,3-d]thiazole-5-carboxamide] | > 2
Cc1ccc2c(N)c(C(=O)N[C@H]3COc4c(ccc(N5CCNCC5)c4F)C3)sc2n1 [Example 1-33, (R)-3-amino-N-(8-fluoro-7-(piperazin-1-yl)chroman-3-yl)-6-methylthieno[2,3-b]pyridine-2-carboxamide] | 0.05 to 0.2
Cc1ccc2c(N)c(C(=O)N[C@@H]3COc4c(ccc(N5CCNCC5)c4F)C3)sc2n1 [Example 1-34, (S)-3-amino-N-(8-fluoro-7-(piperazin-1-yl)chroman-3-yl)-6-methylthieno[2,3-b]pyridine-2-carboxamide] | > 2
Cc1ccc2c(N)c(C(=O)N[C@H]3COc4cc(N5CCNCC5)c(F)cc4C3)sc2n1 [Example 1-35, (R)-3-amino-N-(6-fluoro-7-(piperazin-1-yl)chroman-3-yl)-6-methylthieno[2,3-b]pyridine-2-carboxamide] | 0.2 to 2
Cc1ccc2c(N)c(C(=O)N[C@@H]3COc4cc(N5CCNCC5)c(F)cc4C3)sc2n1 [Example 1-36, (S)-3-amino-N-(6-fluoro-7-(piperazin-1-yl)chroman-3-yl)-6-methylthieno[2,3-b]pyridine-2-carboxamide] | > 2
Cc1ccc2c(N)c(C(=O)N[C@H]3COc4cc(N5CC6CNCC(C5)C6(F)F)ccc4C3)sc2n1 [Example 2-1, 3-Amino-N-((3R)-7-(9,9-difluoro-3,7-diazabicyclo[3.3.1]nonan-3-yl)chroman-3-yl)-6-methylthieno[2,3-b]pyridine-2-carboxamide] | 0.001 to 0.05
Cc1ccc2c(N)c(C(=O)N[C@H]3COc4cc(N5CC6CC(C5)N6)ccc4C3)sc2n1 [Example 2-2, N-((3R)-7-(3,6-diazabicyclo[3.1.1]heptan-3-yl)chroman-3-yl)-3-amino-6-methylthieno[2,3-b]pyridine-2-carboxamide] | 0.05 to 0.2
Cc1ccc2c(N)c(C(=O)N[C@@H]3COc4cc(N5CC6CC(C5)N6)ccc4C3)sc2n1 [Example 2-3, N-((3S)-7-(3,6-diazabicyclo[3.1.1]heptan-3-yl)chroman-3-yl)-3-amino-6-methylthieno[2,3-b]pyridine-2-carboxamide] | > 2
Cc1ccc2c(N)c(C(=O)N[C@H]3COc4cc(N5CCNC[C@@H]5C)ccc4C3)sc2n1 [Example 2-4, 3-amino-6-methyl-N-((R)-7-((S)-2-methylpiperazin-1-yl)chroman-3-yl)thieno[2,3-b]pyridine-2-carboxamide] | 0.001 to 0.05
Cc1ccc2c(N)c(C(=O)N[C@H]3COc4cc(N5CCNC[C@H]5C)ccc4C3)sc2n1 [Example 2-5, 3-amino-6-methyl-N-((R)-7-((R)-2-methylpiperazin-1-yl)chroman-3-yl)thieno[2,3-b]pyridine-2-carboxamide] | 0.001 to 0.05
Cc1ccc2c(N)c(C(=O)N[C@H]3COc4cc(N5C6CCC5CNC6)ccc4C3)sc2n1 [Example 2-6, N-((3R)-7-(3,8-diazabicyclo[3.2.1]octan-8-yl)chroman-3-yl)-3-amino-6-methylthieno[2,3-b]pyridine-2-carboxamide] | 0.05 to 0.2
Cc1ccc2c(N)c(C(=O)N[C@H]3COc4cc(N5CCCC56CNC6)ccc4C3)sc2n1 [Example 2-7, (R)-N-(7-(2,5-diazaspiro[3.4]octan-5-yl)chroman-3-yl)-3-amino-6-methylthieno[2,3-b]pyridine-2-carboxamide] | 0.2 to 2
Cc1ccc2c(N)c(C(=O)N[C@H]3COc4cc(N5CCN[C@@H](C)C5)ccc4C3)sc2n1 [Example 2-8, 3-amino-6-methyl-N-((R)-7-((S)-3-methylpiperazin-1-yl)chroman-3-yl)thieno[2,3-b]pyridine-2-carboxamide] | 0.2 to 2
